# Where a name gives a salt, the structure may show the parent alone. Read-outs that look alike come from different tables or passages of the source.
# What was measured:
# [1] = test system: ART (antigen-responding T-cell); assay: In vitro ART (antigen-responding T-cell) proliferation test; assay type: cell-based, Lewis rat; settings: Rattus norvegicus, T-cell, read-out: % Inhibition of ART growth
# [2] = test system: Mouse phenylquinone writhing; assay: Mouse phenylquinone writhing inhibitory activity; assay type: in vivo, mouse (Slc: ICR); settings: Mus musculus, po, 20 min, 50 mg/kg, orally; read-out: Inhibitory percentage (phenylquinone writhing)
# How it was run: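 Male ICR mice (4 weeks, 17–24 g) dosed orally with compound suspended in 5% gum arabic. After 30 min, 0.02% phenylquinone (0.1 ml/10 g) given i.p.; writhing and stretching responses counted over 20 min.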
# [3] = test system: brewer's yeast induced pyrexia; assay: Antipyretic activity (brewer's yeast induced pyrexia); assay type: in vivo, rat (DS line); settings: 50 mg/kg, orally; for Antipyretic activity, .increment. °C.: at peak time
# Description: Antipyretic Activity Six male DS line rats, 7 weeks old, weighing 200 to 240 g (Nihon Clea) per one group were used. According to the method of Winder et al. (J. Pharmac. Exp. Ther. 138: 405 (1963)), a suspension of 15% brewer's yeast (Sigma) in physiological saline (1 ml/100 g, b.w.) was injected subcutaneously at 16 hours before measurement of the body temperature to induce pyrexia. After injection of yeast, only water was provided, and each rat was bred separately in a five duplicate cage. At 16, 17 and 18 hours after yeast injection, the rectal temperature was measured by a thermistor thermometer (Takara Kogyo K.K.), and this was taken as the basal body temperature. […] Animals having the body temperature of not lower than 38.5° C. at 18 hours after yeast injection were selected, and a test compound was administered orally (1 ml/100 g, b.w.). As a control, only the solvent was provided. Upon administration, the body temperature of the control group and that of the test compound-administered group were adjusted to the same temperature. The rectal temperature was measured every hour till five hours after administration.
# [4] = test system: Rat reversed passive Arthus reaction (skin); assay: Rat reversed passive Arthus reaction (skin) inhibitory activity; assay type: in vivo, rat (Jcl: SD); settings: po, orally, read-out: Inhibitory percentage (reversed passive Arthus reaction)
# Description: Rat Reversed Passive Arthus Reaction (skin) Inhibitory Activity This reaction was-induced by using domestic rabbit anti-egg albumin (EA) antiserum according to the method of Chang and Otterness [Chang, Y. -H. and Otterness, I. G.: Eur. J. Pharmacol. 69, 155 (1981)]. Using six Jcl: SD male rats (7 weeks old, weight about 250 g) per one group, the hair was removed from the back under ether anesthesia, 1 ml of 0.5% EA physiological saline was injected […] into the tail vein, and further each 0.1 ml of diluted antiserum (6 mg protein antibody/ml) was injected in the back on both dexter and sinister sides. […] Acceleration of permeability through the vessel by the reaction was measured by injecting 1 ml of 1% Evans blue physiological saline intravenously at three hours after the induction of the reaction. Then, after 30 minutes, the rat was sacrificed by exsanguination. The skin was peeled off and the area of pigment spot (length×breadth, mm^2) was measured.
# cyclooxygenase = molecular target: T1, cyclooxygenase (Rattus norvegicus, UniProt Q63921); assay: Cyclooxygenase inhibitory activity (HHT formation from arachidonic acid in rat platelet-rich plasma); assay type: cell-based, rat (Jcl:wistar)
# T1 construct: from tissue; host or cells: platelets in platelet-rich plasma from rat abdominal aorta blood (Jcl:wistar, male)
# T1 sequence (Q63921 27-602): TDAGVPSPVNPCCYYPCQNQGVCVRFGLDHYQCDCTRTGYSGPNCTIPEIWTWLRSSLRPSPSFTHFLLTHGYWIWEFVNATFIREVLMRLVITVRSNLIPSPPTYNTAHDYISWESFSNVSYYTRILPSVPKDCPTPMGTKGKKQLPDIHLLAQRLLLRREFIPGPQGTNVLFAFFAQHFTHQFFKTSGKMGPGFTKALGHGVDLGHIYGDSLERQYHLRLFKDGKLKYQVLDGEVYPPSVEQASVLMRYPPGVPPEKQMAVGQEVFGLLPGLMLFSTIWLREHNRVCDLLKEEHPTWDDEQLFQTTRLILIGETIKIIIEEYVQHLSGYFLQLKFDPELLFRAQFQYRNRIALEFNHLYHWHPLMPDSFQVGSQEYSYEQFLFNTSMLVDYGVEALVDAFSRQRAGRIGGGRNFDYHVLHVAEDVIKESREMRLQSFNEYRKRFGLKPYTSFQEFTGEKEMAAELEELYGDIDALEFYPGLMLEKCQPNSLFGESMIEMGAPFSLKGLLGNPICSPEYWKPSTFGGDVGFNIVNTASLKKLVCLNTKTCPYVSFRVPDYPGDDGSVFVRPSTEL
# [5] = test system: Rat carrageenin pedal edema; assay: Rat carrageenin pedal edema inhibitory activity; assay type: in vivo, rat (Jcl: SD); settings: Rattus norvegicus, po, 3 h, 50 mg/kg, orally, 3 hours after carrageenin; read-out: Inhibitory percentage (carrageenin pedal edema)
# How it was run: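 Male Jcl:SD rats (6 weeks, 160-220 g) received test compound orally as a 5% gum arabic suspension, topped up with water to 5 ml/rat. One hour later 0.05 ml of 1% carrageenin was injected subcutaneously into the right hind foot pad. Edema volume was the foot volume increase 3 hours post-injection.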
# [6] = test system: Mouse acetic acid writhing; assay: Mouse acetic acid writhing inhibitory activity; assay type: in vivo, mouse (Slc: ICR); settings: Mus musculus, po, 20 min, orally, read-out: Inhibitory percentage (acetic acid writhing)
# Description: Mouse Acetic Acid Writhing Inhibitory Activity
# Ten male Slc: ICR mice, 4 weeks old, per 1 group were used. A test compound was administered orally, and after 30 minutes, 0.1 ml/10 g body weight of physiological saline containing 0.6% acetic acid was injected intraperitoneally. For 20 minutes, writhing (in agony condition) response by administration of acetic acid was counted regarding individual animals. The inhibitory percentage relative to the mean response counts of a control group was calculated regarding respective animals in a test compound administration group. The test compound was suspended in 5% gum arabic solution, and the administration volume was 0.2 ml/10 g.
# ELAM-1 = assay: Adhesion protein expression inhibitory activity, ELAM-1; assay type: cell-based
# Description: (§1) Adhesion Protein Expression Inhibitory Activity The various concentrations of test compounds were added to the human umbilical cord-derived vascular endothelial cells [sold by Klabo] which were seeded in the gelatin coat plate and the mixture was incubated at 37° C. for 15 minutes. Then, the human tumor necrosis factor-α[TNF-α; sold by Genzyme] was added therein to the final concentration of 1 ng/ml and incubation was carried out at 37° C. for 3 hours for expression of ELAM-1 and for 6 hours for that of ICAM-I. After the reaction, the cells were fixed using glutaraldhyde and the expression amount of ELAM-1 and ICAM-1 was measured by the cell-ELISA method. That is, the expression was determined by […] the adhesion proteins on the cells in the system using anti-ELAM-1 antibody BBA-2 and anti-ICAM-1 antibody BBA4 as the first antibody as well as horseradish peroxidase-labeled rabbit anti-mouse IgG antibody as the second antibody.
# 5-Lipoxygenase = molecular target: T2, 5-Lipoxygenase (Rattus norvegicus, UniProt P12527); assay: 5-Lipoxygenase inhibitory activity in rat basophilic leukemia cells; assay type: cell-based
# T2 construct: rat basophilic leukemia cell suspension; endogenous in cells
# T2 sequence (P12527 1-673): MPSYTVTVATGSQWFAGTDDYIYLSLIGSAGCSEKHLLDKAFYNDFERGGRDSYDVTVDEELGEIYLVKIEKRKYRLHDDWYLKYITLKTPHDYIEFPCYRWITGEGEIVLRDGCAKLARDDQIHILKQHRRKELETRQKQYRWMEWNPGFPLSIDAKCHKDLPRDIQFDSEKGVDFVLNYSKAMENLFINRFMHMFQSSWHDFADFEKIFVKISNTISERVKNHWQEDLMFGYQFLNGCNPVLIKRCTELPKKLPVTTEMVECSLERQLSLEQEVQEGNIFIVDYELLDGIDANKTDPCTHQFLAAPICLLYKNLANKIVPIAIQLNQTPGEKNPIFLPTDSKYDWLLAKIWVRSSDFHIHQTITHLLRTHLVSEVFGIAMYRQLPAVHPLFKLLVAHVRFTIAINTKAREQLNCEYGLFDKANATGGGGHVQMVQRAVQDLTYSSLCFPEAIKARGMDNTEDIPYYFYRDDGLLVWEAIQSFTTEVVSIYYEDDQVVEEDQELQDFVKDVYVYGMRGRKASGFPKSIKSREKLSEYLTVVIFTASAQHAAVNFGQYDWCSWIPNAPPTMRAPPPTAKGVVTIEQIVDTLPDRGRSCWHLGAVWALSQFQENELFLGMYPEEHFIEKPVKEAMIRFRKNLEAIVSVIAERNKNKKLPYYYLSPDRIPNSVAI
# Description: 5-Lipoxygenase Inhibitory Activity […] Then, 0.1 ml of mast cell medium containing 50 μg of arachidonic acid and 1 μg of calcium ionophore (A-23187) were added and the mixture was allowed to stand at 37° C. for 15 minutes. Ethanol (1 ml) was added thereto and the mixture was shaken well, and filtered (Membrane filter, 0.45 μm). […] As a control, the measurement was carried out according to the same manner except that 0.01 ml of the solvent used for dissolving the test compound was used in place of the test compound. The inhibitory percentage (%) was calculated from the following equation to obtain IC50.
# ICAM-1 = assay: Adhesion protein expression inhibitory activity, ICAM-1; assay type: cell-based; settings: human umbilical vascular endothelial cells, TNF-α, 360 min
# Description: as §1
# [7] = 10 μM, human umbilical vascular endothelial cells, TNF-α; 180 min
compound,measurement,setting,value
"CC(C)(C)C(=O)NCCCSc1ccncc1.Cl [Example 24, 4-[3-(pivaloylamino)propylthio]pyridine hydrochloride]",inhibition at 1 µM,[1],29%
same,inhibition at 10 µM,[1],35%
same,inhibition in vivo at 50 mg/kg,[2],56%
same,"Antipyretic activity, peak time",[3],2 h
same,"Antipyretic activity, .increment. °C.",[3],-1.33 °C
same,inhibition in vivo at 50 mg/kg,[4],46%
"O=C(NCCCSc1ccncc1)C(F)(F)F [Example 25, 4-[3-(trifluoroacetylamino)propylthio]pyridine hydrochloride]",IC50,cyclooxygenase,3.4 µM
same,inhibition at 1 µM,[1],44%
same,inhibition at 10 µM,[1],-7%
same,inhibition in vivo at 50 mg/kg,[2],60%
same,inhibition in vivo at 50 mg/kg,[4],24%
"CCCCOc1ccc(C(=O)NCCCSc2ccncc2)cc1 [Example 35, 4-[3-(4-n-butoxybenzoylamino)propylthio]pyridine hydrochloride]",IC50,cyclooxygenase,2.3 µM
same,inhibition at 1 µM,[1],18%
same,inhibition at 10 µM,[1],33%
same,inhibition in vivo at 50 mg/kg,[2],60%
same,inhibition in vivo at 50 mg/kg,[4],30%
"O=C(NCCCSc1ccncc1)c1cccnc1 [Example 41, 4-[3-(nicotinoylamino)propylthio]pyridine]",IC50,cyclooxygenase,11.3 µM
same,inhibition in vivo at 50 mg/kg,[2],73%
same,inhibition in vivo at 50 mg/kg,[4],35%
"O=C(NCCCSc1ccncc1)c1ccco1 [Example 53, 4-[3-(2-furoylamino)propylthio]pyridine]",IC50,cyclooxygenase,8.6 µM
same,inhibition in vivo at 50 mg/kg,[4],21%
"O=C(C=Cc1cccs1)NCCCSc1ccncc1 [Example 56, 4-[3-(2-thiopheneacrylamino)propylthio]pyridine]",inhibition in vivo at 50 mg/kg,[4],32%
"O=C(NCCCSc1ccncc1)c1cnccn1 [Example 124, 4-[3-(2-pyrazinecarbonylamino)propylthio]pyridine]",IC50,cyclooxygenase,5.5 µM
same,inhibition in vivo at 50 mg/kg,[5],51%
same,inhibition in vivo at 50 mg/kg,[6],69%
same,"Antipyretic activity, peak time",[3],2 h
same,"Antipyretic activity, .increment. °C.",[3],-1.52 °C
"O=c1[nH]c2ccccc2c(=O)n1CCCCSc1ccncc1 [Example 146, 3-[4-(4-pyridylthio)butyl]quinazolin-2,4(1H,3H)-dione]",IC50,cyclooxygenase,5.1 µM
same,inhibition at 1 µM,[1],22%
same,inhibition at 10 µM,[1],20%
same,"Expression Inhibitory Potency, ELAM-1","ELAM-1; 13 μM, human umbilical vascular endothelial cells, TNF-α; 180 min",33%
"O=C1C(=Cc2ccccc2)SC(=S)N1CCCCSc1ccncc1 [Example 153, 4-[4-(5-benzylidenerhodanine)butylthio]pyridine]",IC50,"5-Lipoxygenase; 5-HETE, read-out: 5-Lipoxygenase inhibitory activity, 5-HETE IC50",1300 nM
same,IC50,"5-Lipoxygenase; LTB4, read-out: 5-Lipoxygenase inhibitory activity, LTB4 IC50",790 nM
same,inhibition at 1 µM,[1],-20%
same,inhibition at 10 µM,[1],75%
same,inhibition in vivo at 50 mg/kg,[6],49%
"O=C1c2ccccc2S(=O)(=O)N1CSc1ccncc1 [Example 172, 4-saccharinmethylthiopyridine]",inhibition in vivo at 50 mg/kg,[5],19%
same,"Expression Inhibitory Potency, ELAM-1","ELAM-1; 13 μM, human umbilical vascular endothelial cells, TNF-α, 180 min",31%
same,"Expression Inhibitory Potency, ICAM-1",ICAM-1; 13 μM,34%
"O=C1c2ccccc2S(=O)(=O)N1CSc1ccncc1 [Example 180, 4-(saccharinmethylthio)pyridine hydrochloride]","Expression Inhibitory Potency, ELAM-1","ELAM-1; 13 μM, human umbilical vascular endothelial cells, TNF-α, 180 min, hydrochloride",29%
same,"Expression Inhibitory Potency, ICAM-1","ICAM-1; 13 μM, hydrochloride",35%
"O=C1SC(=Cc2ccncc2)C(=O)N1CCCCSc1ccncc1 [Example 184, 4-[4-[5-(4-pyridyl)methylene-2,4-thiazolidinedione]butylthio]pyridine]","Expression Inhibitory Potency, ELAM-1",ELAM-1; [7],47%
"O=C1SC(=Cc2cccnc2)C(=O)N1CCCCSc1ccncc1 [Example 185, 4-[4-[5-(3-pyridyl)methylene-2,4-thiazolidinedione]butylthio]pyridine]","Expression Inhibitory Potency, ELAM-1",ELAM-1; [7],33%
"CCCCCCCCCC=C1SC(=O)N(CCCCSc2ccncc2)C1=O [Example 187, 4-[4-(5-nonylmethylene-2,4-thiazolidinedione)butylthio]pyridine hydrochloride]","Expression Inhibitory Potency, ELAM-1",ELAM-1; [7],53%
same,"Expression Inhibitory Potency, ICAM-1",ICAM-1; 10 μM,79%
